# Experimental data: patent US4451575A, “Activators for Ziegler type polymerization catalysts using bis(trichloromethyl) sulfone” (Uniroyal, Inc., priority 1982, dated 1984)
# Key:
# [1] = Ames Test (mutagenicity)
# [2] = system: rabbit skin; assay: Primary Skin Irritation
# [3] = Acute Oral LD50; settings: rat, in vivo
# [4] = system: eye; assay: Eye irritation
SMILES,"Ames Test, mutagenicity [1]",Primary Skin Irritation [2],LD50 [3] [mg/kg],Eye irritation ([4]; left in without washout),Eye irritation ([4]; material washed out 4 seconds after introduction)
"CCCCOC(=O)C1(Cl)OC(Cl)C(Cl)C1Cl (stereo not drawn) [UKU, Butyl 2,3,4,5-Tetrachloro-2,3,4,5, Tetrahydro-2-Furoate]",negative,,,,
"O=C(OCC1(Cl)OC(Cl)C(Cl)C1Cl)C1(Cl)OC(Cl)C(Cl)C1Cl (stereo not drawn) [ZXU, Tetrachlorotetrahydrofurfuryl Tetrachlorotetrahydrofuroate]",negative,Moderate irritant,1100 ± 150,severe irritant,Mild irritant
